From patent US9724351B2, “Compounds for the treatment of paramoxyvirus viral infections” (priority 2012, dated 2017)

Tests used:
[1] = tested on: Respiratory Syncytial Virus (RSV) long strain (ATCC#VR-26); test: RSV Antiviral Assay (CPE reduction assay); type: cell-based; conditions: human respiratory syncytial virus, 120 h; HEp-2 cells infected with RSV long strain, 5 days, CCK-8 readout; bins (Table 2: less than 1 μM; Table 3: equal to or higher than 1 μM and less than 50 μM); read-out: 50% effective concentration (EC50)
Procedure, shortened: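 HEp-2 cells infected with 100 TCID50 RSV long strain per well, compounds from 100 μM or 1 μM in 9-point ⅓ dilutions, duplicates, 1% DMSO. After 5 days at 37 °C, viable cells measured by CCK-8 (A450, 630 nm background); EC50 by regression on mean O.D.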

[2] = Cytotoxicity Determination; type: cell-based; conditions: human, HEp-2 cells, without addition of virus, CCK-8 readout, bins (Table 4: greater than 100 μM; Table 5: equal to or less than 100 μM and greater than 10 μM), read-out: 50% cytotoxicity concentration (CC50)
Procedure, shortened: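 Uninfected cells were exposed to compounds in duplicate over a 7-point ½ dilution series starting at 100 μM final, for 5 days at 37 °C, 5% CO2. CCK-8 was then added for 3-4 h, and CC50 was calculated from optical density.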

Row | Compound | EC50 [1] | CC50 at 5 days [2]
1 | CCCCOc1ccc(C(=O)NCC(=O)N/N=C(\C)c2csc3ccccc23)cc1OC [Compound 483] | 1 to 50 µM | 10 to 100 µM
2 | COc1cc(C(=O)N[C@H](CCO)C(=O)c2ccc(OC)c(-c3ccc(F)c(C(F)(F)F)c3)n2)ccc1OCCO [Compound 1806] | < 1 µM | > 100 µM
3 | COc1cc(C(=O)NCC(=O)N2CCCC(c3csc4c(F)cccc34)=N2)ccc1OCCO [Compound 1101] | < 1 µM | > 100 µM
4 | COc1cc(C(=O)NCC(=O)N2CCN(c3ccc(F)c(Cl)c3)C2=O)ccc1OCCO [Compound 3900] | 1 to 50 µM | > 100 µM
5 | COc1cc(C(=O)NCC(=O)c2ccc(OC)c(-c3ccc(F)c(Cl)c3)n2)ccc1OCC(C)N (centres unmarked) [Compound 1315] | 1 to 50 µM | 10 to 100 µM
6 | COc1ccc(C(=O)NCC(=O)c2ccc3cccnc3c2)cc1OC [Compound 1700] | 1 to 50 µM | > 100 µM
7 | COc1cc(C(=O)NCC(=O)N/N=C(\C)c2csc3ccccc23)ccc1OC(C)C [Compound 475] | < 1 µM | > 100 µM
8 | COC(=O)c1cc(C(=O)CNC(=O)c2ccc(OCCO)c(OC)c2)nc(-c2csc3c(F)cccc23)c1 [Compound 1257] | 1 to 50 µM | > 100 µM
9 | COc1cc(C(=O)NCC(=O)N/N=C(/CC2CCCCC2)c2csc3c(F)cccc23)ccc1OCCO [Compound 606] | 1 to 50 µM | 10 to 100 µM
10 | COc1cc(C(=O)N[C@@H](CO)C(=O)c2ccc(OC)c(-c3csc4c(F)cccc34)n2)ccc1OCCO [Compound 1830] | < 1 µM | > 100 µM
11 | COc1ccc(C(=O)NCC(=O)N/N=C(\CCC(C)C)c2csc3ccccc23)cc1OC [Compound 455A] | < 1 µM | > 100 µM
12 | COc1cc(C(=O)NCC(=O)c2cccc(-c3csc4c(F)cccc34)n2)ccc1OCCn1ccnc1 [Compound 1246] | 1 to 50 µM | 10 to 100 µM
13 | CCCc1cc(C(=O)CNC(=O)c2ccc(OC)c(OC)c2)nc(-c2csc3c(F)cccc23)c1 [Compound 1244] | < 1 µM | 10 to 100 µM
14 | COc1cc(C(=O)NCC(=O)c2ccc3c(n2)-c2c(sc4c(F)cccc24)CO3)ccc1OCCO [Compound 2703] | 1 to 50 µM | 10 to 100 µM
15 | CCOc1ccc(C(=O)NCC(=O)N/N=C(\C)c2csc3cnccc23)cc1OC [Compound 466] | 1 to 50 µM | > 100 µM
16 | CCOc1ccc(C(=O)NCC(=O)N/N=C(\C)c2csc3ccccc23)cc1OC [Compound 502] | < 1 µM | > 100 µM
17 | COc1ccc(C(=O)NCC(=O)c2ccc(OC)c(-c3csc4ccccc34)n2)cc1OC [Compound 1508] | < 1 µM | > 100 µM
18 | CCCC/C(=N\NC(=O)CNC(=O)c1ccc(OCC)c(OC)c1)c1csc2c(F)cccc12 [Compound 462A] | < 1 µM | > 100 µM
19 | CCN(CC)c1cc(C(=O)NCC(=O)N/N=C(\C)c2csc3ccccc23)cs1 [Compound 511] | 1 to 50 µM | 10 to 100 µM
20 | COCc1ccc(C(=O)NCC(=O)N/N=C(\C)c2csc3ccccc23)cc1OC [Compound 400-6] | 1 to 50 µM | > 100 µM
21 | COc1cc(C(=O)NCC(=O)c2ccc(OC)c(-c3c(Cl)sc4c(F)cccc34)n2)ccc1OCCO [Compound 2621] | < 1 µM | > 100 µM
22 | CCCC/C(=N\NC(=O)CNC(=O)c1ccc(OC(C)C)c(OC)c1)c1csc2ccccc12 [Compound 476] | < 1 µM | > 100 µM
